Inhibition of growth data for 17 compounds are collected here from ChEMBL document CHEMBL3046649, “Fungitoxic and Phytotoxic Activities of Cinnamic Acid Esters and Amides” (2000).

The test system of assay [1] is Pythium. Briefly: Fungitoxic activity against Pythium sp. assessed as mycelial growth inhibition at 10 ppm after 4 to 5 days by agar dilution method. Particulars: read-out: GI. In general terms: Agar dilution tests growth on a series of plates holding different concentrations.
Assay [2] relates to Brassica rapa subsp. chinensis. In words: whole plant or invertebrate. The format is functional. Particulars: 72 h, read-out: GI.
Description: Phytotoxicity against Brassica rapa subsp. chinensis assessed as growth inhibition of hypocotyl at 100 ppm treated to seeds after 3 days
The test system of assay [3] is Athelia rolfsii. Briefly: microbe, parasite or virus in culture. The format is functional. To be noted: Agroathelia rolfsii, read-out: GI.
Description: Fungitoxic activity against Athelia rolfsii assessed as mycelial growth inhibition at 100 ppm after 4 to 5 days by agar dilution method
For assay [4], the system named is Athelia rolfsii. In words: Fungitoxic activity against Athelia rolfsii assessed as mycelial growth inhibition at 10 ppm after 4 to 5 days by agar dilution method. The format is functional. To be noted: Agroathelia rolfsii; read-out: GI.
The test system of assay [5] is Brassica rapa subsp. chinensis. Briefly: whole plant or invertebrate. The format is functional. Particulars: 72 h, read-out: GI. This is another data set of the same source.
Description: Phytotoxicity against Brassica rapa subsp. chinensis assessed as growth inhibition of radicle at 100 ppm treated to seeds after 3 days
For assay [6], the system named is Pythium. Briefly: microbe, parasite or virus in culture. The assay is classed as functional. Particulars: read-out: GI.
Description: Fungitoxic activity against Pythium sp. assessed as mycelial growth inhibition at 100 ppm after 4 to 5 days by agar dilution method

The structures appear in SMILES notation.

`Cc1cccc(NC(=O)/C=C/c2ccccc2)c1` [N-M-TOLYLCINNAMAMIDE]: the results for the inhibition of growth at 10 ppm in assay [1] and in assay [4] were 52% and 34%, respectively. Also, the inhibition of growth at 100 ppm in assay [2] stood at 13%; in assay [3] it was 83%; in assay [5], 59%; in assay [6], 85%.

For the compound `CCCNC(=O)/C=C/c1ccccc1` [N-PROPYLCINNAMAMIDE], the inhibition of growth at 10 ppm in assay [1] came out at 17%; in assay [4] it was 26%. Also, the inhibition of growth at 100 ppm in assay [2] turned out to be 15%; in assay [3], 89%; in assay [5], 63%; in assay [6], 54%.

Regarding `CCC(C)NC(=O)/C=C/c1ccc(Cl)cc1` (configuration not stated) [N-SEC-BUTYL-3-(4-CHLOROPHENYL)ACRYLAMIDE], the inhibition of growth at 10 ppm in assay [1] came to 41%; in assay [4] it was 44%. Further, the inhibition of growth at 100 ppm in assay [2] came out at 40%; in assay [3], 88%; in assay [5] it was 61%; in assay [6], 43%.

In the case of `CCC(C)NC(=O)/C=C/c1ccc(C(C)C)cc1` (configuration not stated) [N-SEC-BUTYL-3-(4-ISOPROPYLPHENYL)ACRYLAMIDE], the inhibition of growth at 10 ppm in assay [1] was found to be 36%; in assay [4], 33%. For the same compound, the inhibition of growth at 100 ppm in assay [2] came to 29%; in assay [3], 84%; in assay [5] it was 46%; in assay [6], 73%.

Regarding `CCC(C)NC(=O)/C=C/c1ccccc1` (configuration not stated) [N-SEC-BUTYLCINNAMAMIDE], the figures for the inhibition of growth at 10 ppm in assay [1] and in assay [4] were 0% and 35%, respectively. The inhibition of growth at 100 ppm in assay [2] was found to be 56%; in assay [3], 95%; in assay [5], 77%; in assay [6] it was 47%.

For the compound `CC(C)(C)NC(=O)/C=C/c1ccccc1` [N-TERT-BUTYLCINNAMAMIDE], the inhibition of growth at 10 ppm turned out to be 14% in assay [1] and 26% in assay [4]. Besides, the inhibition of growth at 100 ppm in assay [2] came out at 34%; in assay [3], 92%; in assay [5], 73%; in assay [6], 71%.

As for `CCCCCOC(=O)/C=C/c1ccc(Cl)cc1Cl` [PENTYL 3-(2,4-DICHLOROPHENYL)ACRYLATE], the inhibition of growth at 10 ppm in assay [1] turned out to be 9%; in assay [4], 14%. The inhibition of growth at 100 ppm in assay [2] stood at 22%; in assay [3] it was 75%; in assay [5], 0%; in assay [6], 43%.

Take `CCCCCOC(=O)/C=C/c1ccc(Cl)cc1` [PENTYL 3-(4-CHLOROPHENYL)ACRYLATE]: the inhibition of growth at 10 ppm was determined as 17% in assay [1] and 20% in assay [4]. Further, the inhibition of growth at 100 ppm in assay [2] was determined as 27%; in assay [3] it was 82%; in assay [5] it was 22%; in assay [6], 58%.

Take `CCCCCOC(=O)/C=C/c1ccc(C(C)C)cc1` [PENTYL 3-(4-ISOPROPYLPHENYL)ACRYLATE]: the inhibition of growth at 10 ppm in assay [1] came out at 3%; in assay [4], 13%. Also, the inhibition of growth at 100 ppm is 29% in assay [2], 79% in assay [3], 0% in assay [5] and 51% in assay [6].

Regarding `O=C(/C=C/c1ccc(Cl)cc1Cl)OCCc1ccccc1` [PHENETHYL 3-(2,4-DICHLOROPHENYL)ACRYLATE], the inhibition of growth at 10 ppm worked out at 21% in assay [1] and 0% in assay [4]. The inhibition of growth at 100 ppm in assay [2] is 32%; in assay [3] it was 79%; in assay [5], 0%; in assay [6], 63%.

Consider `O=C(/C=C/c1ccc(Cl)cc1)OCCc1ccccc1` [PHENETHYL 3-(4-CHLOROPHENYL)ACRYLATE], for which the values for the inhibition of growth at 10 ppm in assay [1] and in assay [4] were 13% and 9%, respectively. Besides, the inhibition of growth at 100 ppm in assay [2] came out at 36%; in assay [3], 84%; in assay [5], 31%; in assay [6], 60%.

`CC(C)c1ccc(/C=C/C(=O)OCCc2ccccc2)cc1` [PHENETHYL 3-(4-ISOPROPYLPHENYL)ACRYLATE]: the inhibition of growth at 10 ppm came out at 13% in assay [1] and 10% in assay [4]. Also, the inhibition of growth at 100 ppm in assay [2] amounted to 36%; in assay [3], 70%; in assay [5] it was 0%; in assay [6] it was 49%.

For `CCCOC(=O)/C=C/c1ccc(Cl)cc1Cl` [PROPYL 3-(2,4-DICHLOROPHENYL)ACRYLATE], the inhibition of growth at 10 ppm in assay [1] was determined as 14%; in assay [4], 32%. The inhibition of growth at 100 ppm in assay [2] was 41%; in assay [3], 84%; in assay [5], 79%; in assay [6], 77%.

With `CCCOC(=O)/C=C/c1ccc(Cl)cc1` [PROPYL 3-(4-CHLOROPHENYL)ACRYLATE], the inhibition of growth at 10 ppm in assay [1] was found to be 8%; in assay [4], 41%. Further, the inhibition of growth at 100 ppm in assay [2] was 40%; in assay [3], 97%; in assay [5] it was 78%; in assay [6], 87%.

For the compound `CCCOC(=O)/C=C/c1ccc(C(C)C)cc1` [PROPYL 3-(4-ISOPROPYLPHENYL)ACRYLATE], the inhibition of growth at 10 ppm stood at 13% in assay [1] and 43% in assay [4]. In addition, the inhibition of growth at 100 ppm in assay [2] turned out to be 8%; in assay [3], 89%; in assay [5], 5%; in assay [6], 68%.

Consider `CCCOC(=O)/C=C/c1ccccc1` [PROPYL CINNAMATE], for which the inhibition of growth at 10 ppm in assay [1] turned out to be 18%; in assay [4], 40%. In addition, the inhibition of growth at 100 ppm in assay [2] was found to be 31%; in assay [3] it was 86%; in assay [5] it was 7%; in assay [6] it was 95%.

As to `CCC(C)OC(=O)/C=C/c1ccccc1` (configuration not stated) [SEC-BUTYL CINNAMATE], the results for the inhibition of growth at 10 ppm in assay [1] and in assay [4] were 21% and 40%, respectively. For the same compound, the inhibition of growth at 100 ppm came out at 18% in assay [2], 70% in assay [3], 20% in assay [5] and 69% in assay [6].
